Consider 4 compounds from patent publication US7947275B2 (Signe Biopharma, Inc., priority 2000, dated 2011).

The test system of assay [1] is progesterone receptors of MTW9/PL2 cells. Nature of the assay: Estrogen induction of progesterone receptors in MTW9/PL2 cells. Format: cell-based, rat. Conditions: 1.0×10^−8 M E2, within two days; two experiments.
From the text: All results were normalized to “receptors per cell” to correct for growth over the duration of the experiment.
Assay [2] has as its system LNCaP cells. Nature of the assay: Cell growth assay, LNCaP human prostatic carcinoma cells. Format: cell-based. Conditions: D-MEM/F-12 with CDE-horse serum, 10 nM steroid.
Method: Specific modifications of the customary cell growth assays were required for assays done under iron-restricted conditions. […] Serum-free components were added to “low-Fe” D-MEM/F-12 at double the concentrations needed (2X) or to “standard” D-MEM/F-12 at (2X) as the experiments dictated. Each assay dish received 1.0 mL of this solution. Next, the cells to be used in the assays were washed three times in either “low-Fe” medium or “standard” medium depending upon the experimental protocol.
Assay [3] relates to progesterone receptors of T47D cells. Nature of the assay: Induction of progesterone receptors in T47D cells. In kind it is cell-based, human. Conditions: four days, phenol red free medium.
Assay [4] deals with T1, CA-PS-Pool I (predominantly CBG) (Equus caballus, UniProt F7DRS2).
T1 sequence (F7DRS2 23-406): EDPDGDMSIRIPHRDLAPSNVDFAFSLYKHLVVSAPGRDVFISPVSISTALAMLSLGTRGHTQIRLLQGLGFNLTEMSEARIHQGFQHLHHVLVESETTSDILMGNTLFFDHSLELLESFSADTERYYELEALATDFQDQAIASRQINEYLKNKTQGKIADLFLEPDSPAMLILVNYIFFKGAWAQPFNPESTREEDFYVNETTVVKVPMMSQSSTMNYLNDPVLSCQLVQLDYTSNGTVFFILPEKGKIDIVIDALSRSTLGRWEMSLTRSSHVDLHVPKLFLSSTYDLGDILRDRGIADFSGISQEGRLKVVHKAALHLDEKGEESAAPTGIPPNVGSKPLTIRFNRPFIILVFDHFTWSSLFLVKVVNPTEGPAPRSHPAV
Put plainly: Scatchard analysis of labeled steroid binding to CA-PS-pool I. The arrangement: species or system horse. Conditions: 3H-labeled steroid, 34° C.; for Kd: read-out: CA-PS-Pool I Kd.

Assay [5] has as its system CA-PS-Pool II. Nature of the assay: Scatchard analysis of labeled steroid binding to CA-PS-pool II. Further details: species or system horse. Conditions: 3H-labeled steroid, 34° C.
Assay [6] has as its system CA-PS-Pool II from rat serum. Nature of the assay: Scatchard analysis of labeled steroid binding to the SHBG-like pools from rat serum. To be noted: 3H-labeled steroid.
For assay [7], the system named is MCF-7A, T47D and MTW9/PL2 cells. Nature of the assay: Direct test of phenol red versus E2 as mitogen with three ER^+ cell lines. Conditions: phenol red free D-MEM/F-12 with 30% CDE-HS. In kind it is cell-based.
Method: Direct Test of Phenol Red Estrogenic Activity. Three cell lines were selected for a direct test of phenol red as a mitogen. […] This concentration was chosen even though it is not as inhibitory as 50% (v/v) serum. This selection was made to reduce possible interactions of the phenol red/contaminant with serum proteins while still retaining a significant inhibitory effect. Phenol red concentrations of up to 16 mg/L were added to this medium. This highest level was twice that in standard commercially formulated Gibco-BRL D-MEM/F-12. […] The preparations used in this study ranged in age from newly obtained to more than ten year old laboratory stocks.
The conditions of assay [8]: read-out: Kd of ^3H-E2 specific binding.
The conditions of assay [9]: read-out: Kd of ^3H-E2 specific binding. This is another data set of the same source.
Assay [10] has as its system ERβ. Conditions: Transfection Studies, ERβ only; cited from earlier work.
Assay [11] has as its target human SHBG (Homo sapiens, UniProt P04278). Conditions: 37° C.; cited from earlier work.
In assay [12] the target is estrogen receptor of H301 cells (Mesocricetus auratus, UniProt Q9QZJ5). To be noted: cited from earlier work.
In assay [13] the test system is H301 cells. Put plainly: Cell growth assay, H301 kidney tumor cells.
Assay [14] concerns T47D cells. Nature of the assay: Cell growth assay, T47D human breast cancer cells. To be noted: for effect of estrogen in serum-free defined medium without inhibitor: serum-free DDM-2MF ± 10 nM E2.
The test system of assay [15] is GH4C1 cells. Nature of the assay: Cell growth assay, GH4C1 rat pituitary tumor cells.
Assay [16] concerns MCF-7K cells. Nature of the assay: Cell growth assay, MCF-7K human breast cancer cells. Conditions: serum-free DDM-2MF ± 10 nM E2, 12 days.
In assay [17] the test system is ZR-75-1 cells. Nature of the assay: Cell growth assay, ZR-75-1 human breast cancer cells. To be noted: serum-free defined DDM-2MF.
Assay [18] concerns the target T2, estrogen receptors of intact T47D cells (Homo sapiens, UniProt P03372).
T2 construct: endogenous in cells; host or cells: T47D human breast cancer cells
Nature of the assay: Displacement of ^3H-E2 binding to intact T47D cells. To be noted: 5 nM ^3H-E2, two hours at 37° C.; r9-r14: 2.5, 5.0, 50, 250, 500, 1000 nM Unlabeled E2; r15-r19: 1, 2, 4, 5, 16 mg/L Phenol Red.

In assay [19] the test system is HT-29 cells. Nature of the assay: Cell growth assay, HT-29 human colon cancer cells. Format: cell-based. Conditions: CAPM with plasma IgM at 40 μg/mL, increasing concentrations of T3. From the text: General Cell Culture—Growth Assay Methods.
General Cell Culture—Harvest and Counting Cells.
General Cell Culture—Quantification of Growth.

Assay [20] deals with GH4C1, GH1 and GH3 rat pituitary tumor cell lines. Put plainly: Thyroid hormone growth effects with GH cell lines in CDE-horse serum. In kind it is cell-based. Here is the method: Thyroid Hormone Responsive Pituitary Tumor Cell Growth in CDE-Serum Prepared at 34° C. […] Nonetheless, the 34° C. […] It is known that the thyroid hormone receptor is a member of a superfamily of receptors that also includes the steroid hormone receptors (Evans R M (1988) Science (Wash D.C.) 240:889-895). Testing of substances expected to have thyroid hormone like activity can be performed with the GH cell lines in the presence of low concentrations of CDE-serum.

In assay [21] the target is human CBG (Homo sapiens, UniProt P08185). Conditions: 23° C.; cited from earlier work.
Assay [22] deals with cortisol receptors of MTW9/PL2 cells. Put plainly: ^3H-cortisol binding to MTW9/PL2 cells. To be noted: ≦20 nM ^3H-cortisol.
Assay [23] has as its system MTW9/PL2 cells. Nature of the assay: Cell growth assay, MTW9/PL2 rat mammary tumor cells. To be noted: 50% (v/v) CDE-horse serum.

SMILES strings stand for the structures. Several values for one entry are separate records, joined by “and”; a condition that tells them apart may be missing. Equal values may be shown once. Read-outs that look alike come from different tables or passages of the source.

Chain of estrogen receptor of H301 cells (Q9QZJ5 whole entry): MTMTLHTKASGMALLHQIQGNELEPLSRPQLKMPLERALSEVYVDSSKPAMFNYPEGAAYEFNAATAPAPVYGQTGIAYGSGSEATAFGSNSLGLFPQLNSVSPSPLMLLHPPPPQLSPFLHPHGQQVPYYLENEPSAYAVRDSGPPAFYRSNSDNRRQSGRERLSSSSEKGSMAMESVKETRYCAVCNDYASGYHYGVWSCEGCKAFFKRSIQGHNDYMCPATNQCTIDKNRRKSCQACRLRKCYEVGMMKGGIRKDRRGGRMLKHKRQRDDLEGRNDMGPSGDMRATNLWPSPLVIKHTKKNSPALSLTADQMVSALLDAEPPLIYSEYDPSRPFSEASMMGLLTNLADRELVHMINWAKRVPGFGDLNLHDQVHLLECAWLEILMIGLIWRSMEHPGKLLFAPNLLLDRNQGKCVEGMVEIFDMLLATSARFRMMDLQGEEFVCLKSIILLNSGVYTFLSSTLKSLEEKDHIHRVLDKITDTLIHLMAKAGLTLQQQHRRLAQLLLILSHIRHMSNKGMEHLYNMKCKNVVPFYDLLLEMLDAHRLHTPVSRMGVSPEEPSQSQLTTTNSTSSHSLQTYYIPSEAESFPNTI
Chain of human SHBG (P04278 30-402): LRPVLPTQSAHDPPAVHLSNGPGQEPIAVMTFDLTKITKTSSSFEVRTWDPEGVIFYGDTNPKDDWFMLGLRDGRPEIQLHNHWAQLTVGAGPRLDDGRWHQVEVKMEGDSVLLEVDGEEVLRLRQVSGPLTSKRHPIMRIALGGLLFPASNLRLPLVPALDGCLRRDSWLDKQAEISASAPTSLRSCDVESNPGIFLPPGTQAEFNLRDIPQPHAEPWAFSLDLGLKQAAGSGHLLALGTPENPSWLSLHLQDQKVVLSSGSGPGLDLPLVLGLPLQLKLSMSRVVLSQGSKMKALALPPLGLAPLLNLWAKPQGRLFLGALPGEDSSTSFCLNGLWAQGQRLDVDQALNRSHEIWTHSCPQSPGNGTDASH
Chain of human CBG (P08185 23-405): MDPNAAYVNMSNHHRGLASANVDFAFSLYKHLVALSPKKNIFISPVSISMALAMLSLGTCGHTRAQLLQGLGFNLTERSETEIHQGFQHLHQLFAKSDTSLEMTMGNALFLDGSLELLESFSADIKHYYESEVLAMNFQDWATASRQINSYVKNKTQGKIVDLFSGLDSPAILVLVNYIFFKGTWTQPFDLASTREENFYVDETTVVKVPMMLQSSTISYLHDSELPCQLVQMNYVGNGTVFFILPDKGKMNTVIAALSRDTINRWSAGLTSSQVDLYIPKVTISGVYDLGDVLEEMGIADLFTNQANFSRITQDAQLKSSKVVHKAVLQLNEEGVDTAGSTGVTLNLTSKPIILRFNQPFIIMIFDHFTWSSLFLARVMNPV

Turning to `C[C@]12CC[C@@H]3c4ccc(O)cc4CC[C@H]3[C@@H]1CC[C@@H]2O` [E2, 17β-estradiol], the “increase in number of progesterone receptors per cell” value in assay [1] is 1.8 fold and 2.0 fold. Besides, in assay [2], the “reversal of the inhibition caused by CDE-horse serum” value is listed as “reversed the CDE-serum caused inhibition completely”. Also, the “increase in progesterone receptors” value in assay [3] (1.0×10^−8 M) was “four”. Further, the “increase in progesterone receptor content” value in assay [3] (1.0×10^−12 M) was “two”. The Kd in assay [4] was 10500 nM; in [6], 41 nM; in [8] it was 20 to 50 nM; in assay [9], 20 to 50 nM; in assay [12] (read-out: Kd for E2, CELL EXTRACTS) it was 0.87 nM; in assay [12] (read-out: Kd for E2, Table 5: lowest Kd), 0.87 nM. Besides, the Kd in assay [12] (read-out: Kd for E2, WHOLE CELLS) was 1 nM. Besides, the “CA-PS-Pool II Ka” value was determined as 3.55e+07 M⁻¹ in [5] and 2.4e+07 M⁻¹ in [6]. The “growth responses to the natural hormone” value in assay [7] was in the range of 2 to 5 CPD. Further, in [10], the “Kd for E2, CELL EXTRACTS” value is 0.05 to 0.1 × 10^−9 M. Moreover, in assay [11], the “Ka of purified human SHBG” value is 2.2e+08 M⁻¹. The figures for the “effect of estrogen in serum-free defined medium without inhibitor” value in assay [13] (serum-free defined CAPM), in assay [14] and in assay [14] (listed as estrogen) were “had no effect on H301 cell growth”, 0.5 to 1.0 CPD and 1.0 CPD, respectively. The “effect of E2 in serum-free defined medium without inhibitor” value in assay [15] (serum-free PCM-9) was “had no effect on growth rate or saturation density”; in assay [16], “had no effect on growth rate or saturation density”; in assay [17] it was “no effect”.

Consider `O=S1(=O)OC(c2ccc(O)cc2)(c2ccc(O)cc2)c2ccccc21` [Phenol Red], for which the “Percent of Control” value in assay [18] is 102% and 111% and 94% and 99% and 110%.

`N[C@@H](Cc1cc(I)c(Oc2ccc(O)c(I)c2)c(I)c1)C(=O)O` [T3, 3′, 5-Triiodothyronine]: the “thyroid hormone reversal of the IgM inhibition” value in assay [19] is given as “restored growth”. In addition, the “growth effect, result in words” value is reported as “only supraphysiologic concentrations of thyroid hormone showed growth effects” in assay [20] (50% (v/v) CDE-horse serum) and “caused substantial growth” in assay [20] (D-MEM/F-12 with […] (v/v) CDE-horse serum).

Turning to `C[C@]12CCC(=O)C=C1CC[C@@H]1[C@@H]2[C@@H](O)C[C@@]2(C)[C@H]1CC[C@]2(O)C(=O)CO` [cortisol, Hydrocortisone/Cortisol], the “CA-PS-Pool I Ka” value in assay [4] and in assay [4] (listed as Cortisol) was 1.41e+09 M⁻¹ each time. Moreover, the Kd in [4] stood at 0.71 nM; in [5], 1890 nM; in [6] it was 5700 nM. Besides, the “CA-PS-Pool II Ka” value in [5] is 530000 M⁻¹; in [6], 180000 M⁻¹. For the same compound, in [21], the “Ka for human CBG” value is 5.2e+07 M⁻¹. Besides, in [22], the “specific saturable receptors for cortisol” value was “did not identify specific saturable receptors”. The “growth effect of steroid hormone, result in words” value in assay [13] (50% (v/v) CDE-horse serum) is “inactive”; in [14] (50% (v/v) CDE horse serum, 14 days), “completely ineffective”; in [15] (50% CDE-horse serum), “had no effect on GH4C1 growth”. Besides, the “concentration causing significant (p<0.05) growth” value in assay [23] is greater than 10 µM.
